Assay results from patent US10011573B2, “Human androgen receptor DNA-binding domain (DBD) compounds as therapeutics and methods for their use” (The University of British Columbia, priority 2014, dated 2018).
Entries after “also recorded” stand apart in the source; their conditions may differ. Read-outs that look alike come from different tables or passages of the source.

Experiments:
AR Y594D mutant = target: T1, AR Y594D mutant (Homo sapiens, UniProt P10275, Y594D); assay: ARR3tk-luciferase reporter assay in PC3 cells, AR Y594D; format: cell-based
T1 construct: expressed in transfected cells; host or cells: PC3
T1 sequence (P10275 whole entry Y594D): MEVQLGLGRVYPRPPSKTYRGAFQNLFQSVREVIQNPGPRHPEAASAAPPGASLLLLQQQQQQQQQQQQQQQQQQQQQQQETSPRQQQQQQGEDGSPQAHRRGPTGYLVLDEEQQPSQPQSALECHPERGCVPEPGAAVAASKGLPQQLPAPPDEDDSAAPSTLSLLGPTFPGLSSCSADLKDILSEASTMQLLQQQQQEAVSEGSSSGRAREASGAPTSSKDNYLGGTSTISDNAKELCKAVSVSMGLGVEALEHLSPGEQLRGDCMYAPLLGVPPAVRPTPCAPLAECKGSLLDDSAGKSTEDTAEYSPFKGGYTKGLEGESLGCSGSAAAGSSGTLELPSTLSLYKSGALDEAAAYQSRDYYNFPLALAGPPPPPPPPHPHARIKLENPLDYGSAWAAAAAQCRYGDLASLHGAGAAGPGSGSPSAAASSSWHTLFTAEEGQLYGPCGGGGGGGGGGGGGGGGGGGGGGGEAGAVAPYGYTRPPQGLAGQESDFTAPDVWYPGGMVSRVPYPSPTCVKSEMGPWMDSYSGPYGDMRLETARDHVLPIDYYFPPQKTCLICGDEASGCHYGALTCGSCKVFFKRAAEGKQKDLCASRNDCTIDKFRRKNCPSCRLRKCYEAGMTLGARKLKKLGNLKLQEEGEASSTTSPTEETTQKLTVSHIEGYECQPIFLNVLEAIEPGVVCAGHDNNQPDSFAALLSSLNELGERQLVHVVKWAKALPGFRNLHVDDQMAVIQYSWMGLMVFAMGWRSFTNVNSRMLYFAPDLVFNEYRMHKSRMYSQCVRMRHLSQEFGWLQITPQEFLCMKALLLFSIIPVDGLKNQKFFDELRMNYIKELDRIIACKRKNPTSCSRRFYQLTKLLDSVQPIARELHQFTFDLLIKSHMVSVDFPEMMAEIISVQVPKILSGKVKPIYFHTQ
Method: (§1) 8. Mutation Studies: The residues in the predicted binding site were mutated using the Quickchange™ Site-Directed Mutagenesis Kit as per the instructions.
(§2) 9. Transient Transfection: The PC3/MCF7 cells were seeded into a 96-well plate (2,000 cells/well). After 24 hrs, the wild-type AR (50 ng/well)/AR mutants and AR3TK-luciferase plasmids (1:3) were co-transfected into PC3 cells or ERE-luciferase (50 ng/well) was transfected into MCF7 cells using transfection reagent TT20. 24 hrs after the transfection, the cells were treated with the compounds at various concentrations. And 24 hrs later, the cells were lysed and the reading was taken using a luminometer.

PSA [1] = assay: Prostate-specific antigen (PSA) assay, secreted PSA from the eGFP assay plates; format: cell-based, human; settings: Homo sapiens
Method: 3. Prostate-specific antigen (PSA) assay: The evaluation of PSA levels secreted into the media was performed in parallel to the eGFP assay using the same plates. After cells were incubated for 3 days, 150 μl of the media was taken from each well, and added to 150 μl of PBS.

AR-V7 = target: T2, AR-V7 (Homo sapiens, UniProt P10275); assay: ARR3tk-luciferase reporter assay in PC3 cells, splice variant AR-V7; format: cell-based
T2 construct: expressed in transfected cells; host or cells: PC3
T2 sequence (P10275 1-644 isoform P10275-3): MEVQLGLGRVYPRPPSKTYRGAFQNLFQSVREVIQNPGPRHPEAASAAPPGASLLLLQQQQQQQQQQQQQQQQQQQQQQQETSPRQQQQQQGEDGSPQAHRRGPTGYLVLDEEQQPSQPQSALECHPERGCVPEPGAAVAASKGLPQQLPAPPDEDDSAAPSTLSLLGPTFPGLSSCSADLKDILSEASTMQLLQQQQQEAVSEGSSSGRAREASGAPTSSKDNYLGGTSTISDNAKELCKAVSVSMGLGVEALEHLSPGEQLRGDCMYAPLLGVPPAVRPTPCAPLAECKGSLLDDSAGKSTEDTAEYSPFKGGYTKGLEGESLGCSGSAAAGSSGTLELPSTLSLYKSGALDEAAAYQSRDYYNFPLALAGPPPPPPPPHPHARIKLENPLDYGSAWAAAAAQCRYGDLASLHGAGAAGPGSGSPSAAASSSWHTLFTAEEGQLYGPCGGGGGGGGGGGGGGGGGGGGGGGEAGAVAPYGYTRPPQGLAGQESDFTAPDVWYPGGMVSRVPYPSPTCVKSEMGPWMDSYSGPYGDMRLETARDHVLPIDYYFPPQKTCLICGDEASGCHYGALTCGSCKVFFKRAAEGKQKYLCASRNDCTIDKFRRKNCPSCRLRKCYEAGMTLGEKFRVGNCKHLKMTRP
Excerpt: Full-length human AR (hARWT) or splice variant (AR-V7) was encoded on a pcDNA3.1 expression plasmid.

AR-V7Y594D = AR-V7Y594D (Homo sapiens, UniProt P10275, Y594D); assay: ARR3tk-luciferase reporter assay in PC3 cells, AR-V7 Y594D
Sequence of AR-V7Y594D (P10275 1-644 isoform P10275-3 Y594D): as the sequence (P10275 1-644 isoform P10275-3) above, with Y594D counted along it
Method: Cells were then treated with compounds at various concentrations and 0.1 nMR1881 (in 100% ethanol) for 24 h. […] Cell lysis was carried out with 60 μl of 1X passive lysis buffer/well (Promega™)
20 μl of cell lysate from each well were mixed with 50 μl of luciferase assay reagent (Promega™), and luminescence was recorded on a TECAN™ M200pro plate reader. Luciferase assays with splice variant AR were performed the same way but with only 5 ng of pcDNA3.1 AR-V7 (to limit the high level of AR-V7 expression) and no R1881.

AR Q592D mutant = target: T3, AR Q592D mutant (Homo sapiens, UniProt P10275, Q592D); assay: ARR3tk-luciferase reporter assay in PC3 cells, AR Q592D; format: cell-based
T3 construct: Full-length human AR (hARWT) or splice variant (AR-V7) was encoded on a pcDNA3.1 expression plasmid; expressed in transfected cells; host or cells: PC3
T3 sequence (P10275 whole entry Q592D, canonical isoform): as the sequence (P10275 whole entry Y594D) above, with Q592D, D594Y counted along it
Method: as §1, §2

PSA [2] = assay: PSA measurements, LNCaP cells, 1 nM R1881, 2 days; format: cell-based, human
Method: Following the incubation period, 150 μl of the media was taken from each well, and PSA levels were quantified using a Cobas e411 analyzer (Roche Applied Science™) according to the manufacturer's instructions. The same instrument was used to analyze serum PSA from mice during the in vivo analysis.

androgen receptor (AR) = target: T4, androgen receptor (AR) (Homo sapiens, UniProt P10275, T878A); assay: eGFP cellular AR transcription assay (LNCaP eGFP cells, LN-ARR2PB-eGFP)
T4 sequence (P10275 1-920 T878A): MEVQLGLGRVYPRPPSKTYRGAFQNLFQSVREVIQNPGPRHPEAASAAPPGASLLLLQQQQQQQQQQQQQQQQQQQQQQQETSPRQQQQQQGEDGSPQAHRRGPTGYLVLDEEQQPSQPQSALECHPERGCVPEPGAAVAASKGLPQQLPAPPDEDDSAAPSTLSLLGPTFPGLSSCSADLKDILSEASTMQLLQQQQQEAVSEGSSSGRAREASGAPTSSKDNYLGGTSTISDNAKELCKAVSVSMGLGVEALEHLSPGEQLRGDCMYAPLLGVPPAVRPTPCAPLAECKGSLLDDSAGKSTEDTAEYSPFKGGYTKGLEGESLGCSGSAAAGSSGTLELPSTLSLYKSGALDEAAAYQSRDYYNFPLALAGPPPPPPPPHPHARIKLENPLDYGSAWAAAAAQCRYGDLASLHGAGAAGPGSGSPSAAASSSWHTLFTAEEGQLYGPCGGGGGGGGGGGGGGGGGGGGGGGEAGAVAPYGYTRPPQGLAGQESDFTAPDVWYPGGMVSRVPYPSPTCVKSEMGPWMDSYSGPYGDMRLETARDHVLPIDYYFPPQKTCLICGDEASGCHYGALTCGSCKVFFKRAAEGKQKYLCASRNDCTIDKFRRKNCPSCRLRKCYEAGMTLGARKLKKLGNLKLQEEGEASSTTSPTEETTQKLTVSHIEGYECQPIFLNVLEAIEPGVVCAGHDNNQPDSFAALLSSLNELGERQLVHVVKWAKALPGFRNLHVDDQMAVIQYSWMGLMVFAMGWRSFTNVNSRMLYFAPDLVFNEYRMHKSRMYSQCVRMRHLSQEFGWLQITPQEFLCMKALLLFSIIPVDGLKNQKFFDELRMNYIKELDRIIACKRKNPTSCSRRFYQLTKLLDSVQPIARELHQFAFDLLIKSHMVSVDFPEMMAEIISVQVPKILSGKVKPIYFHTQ

LNCaP cells = assay: Cell viability (MTS) assay, LNCaP; format: cell-based, human; settings: 0.1 nM R1881
Method: 1. Cell Culture: LNCaP and PC3 human prostate cancer cells were obtained from American Type Culture Collection (ATCC, Manassas, Va.) and grown in RPMI 1640 medium supplemented with 5% fetal bovine serum (FBS) (Invitrogen). […]. All cells were maintained at 37° C. in 5% CO2.
7. Cell viability assay: The PC3, LNCaP, and MDV3100-resistant cells were plated at 3,000 cells per well in RPMI 1640 containing 5% charcoal stripped serum (CSS) in a 96-well plate, treated with 0.1 nM R1881 and compounds (0-25 μM) for 96 hrs.

PARP = assay: Western blots against PARP / cleaved PARP (apoptosis); format: cell-based, human; settings: PC3 luciferase assay lysates
Method: Cell lysates (40 μl) from luciferase assays (96-well plate) were separated on a 10% SDS-polyacrylamide mini gel. Protein was transferred to methanol-charged PVDF membranes and probed with anti-AR441 (mouse, Sigma™) monoclonal primary antibody. Blots were also probed with polyclonal anti-actin (rabbit, Sigma™) to show equal loading and polyclonal anti-PARP/anti-cleaved PARP (rabbit, Sigma™) to test for induction of apoptosis. Lysates from CWR-R1 cells were additionally probed with polyclonal anti-FKBP5 (rabbit, Sigma™) following 2 days of incubation with compounds.

[3] = LNCaP eGFP cells, R1881, secreted PSA
[4] = eGFP IC50, LNCaP eGFP cells, 0.1 nM R1881

| SMILES | concentration at which Y594D AR is inhibited (AR Y594D mutant; PC3 cells) | IC50 (PSA [1]; [3]) | IC50 (PSA [1]; Series 1) | inhibition of AR-V7 transcriptional activity (AR-V7; PC3 cells, no R1881) | inhibition of AR-V7Y594D transcriptional activity (AR-V7Y594D) | concentration at which Q592D AR is inhibited (AR Q592D mutant; PC3 cells) | IC50 secreted PSA (PSA [2]) | fold improved activities compared to compound 6 (14228) (androgen receptor (AR)) | IC50 (androgen receptor (AR); eGFP IC50 (μM), Series 1) | IC50 (androgen receptor (AR); [4]) | inhibition of cell growth, LNCaP (LNCaP cells) | toxicity / induction of apoptosis (PARP cleavage) (PARP) | inhibition of Y594D AR luciferase expression (AR Y594D mutant) | inhibition of AR-V7 transcriptional activity (AR-V7) | inhibition of Q592D AR luciferase expression (AR Q592D mutant) | inhibition at 3 µM (androgen receptor (AR); LNCaP, read-out: % Inhibition (3 μM)) |
| --- | --- | --- | --- | --- | --- | --- | --- | --- | --- | --- | --- | --- | --- | --- | --- | --- |
| Brc1ncn(-c2csc(N3CCOCC3)n2)c1Br [Compound 14449] | ≥ 25 µM | 170 nM | 170 nM | reduced with increasing concentrations; also recorded: inhibit the transcription of AR-V7 in a concentration-dependent manner | could not be inhibited | ≥ 25 µM | sub-micromolar | 2 fold | 0.1 µM | 0.12 ± 0.01 µM | concentration-dependent inhibition of the cell growth | little or no toxicity |  |  |  |  |
| c1ccc(-c2csc(N3CCOCC3)n2)cc1 [Compound 14228, 4-(4-phenylthiazol-2-yl)morpholine] |  | 188 nM | 280 nM |  | could not be inhibited |  | sub-micromolar |  | 0.33 µM | 0.274 µM | strongly inhibits | little or no toxicity | not affected | reduced with increasing concentrations; also recorded: inhibit the transcription of AR-V7 in a concentration-dependent manner | not affected | 110% |
